According to patent publication US11692008B2, “Preparation and uses of reactive oxygen species scavenger derivatives” (XWPHARMA LTD., priority 2017, dated 2023):
pEC50: −log10 of the molar value. Where two headings read alike, the source gives them in different places.

Experiments:
HT-1080 cells = experiment: Ferroptosis cell viability assay (Erastin-induced, CellTiter-Glo); assay type: cell-based; conditions: read-out: EC50, inhibition for ferroptosis in HT-1080 cell
Protocol: Cell Lines and Media: HT-1080 (fibrosarcoma) cells were obtained from American Type Culture Collection. Cells were grown in EMEM media, 10% Heat-Inactivated FBS, and penicillin-streptomycin mix (Invitrogen). Cells were maintained at 37° C. and 5% CO2 in a tissue culture incubator.
Cell Viability Assay. Seed 10,000 cell/well of HT-1080 cells with 195 μL growth media in black and clear bottom 96-well plates (Cat #Corning3904) and allow cells to adhere overnight. The next day, dilute test compound by 2-fold dilution into 12 points with medium containing 400 μM Erastin. Transfer 5 μL of compounds solution into growth medium in triplicated wells. 30 hours later, add Cell Titer-Glo® Luminescent cell viability assay reagent (Cat #, Promega G8081) to measure HT-1080 cell viability according to the manufacture protocol. Briefly, aspirate 100 μL medium, and add 50 μL CellTiter-Glo® Luminescent reagent to each well and incubated for 30 minutes at room temperature to stabilize the Luminescent signal. Seal the plates and centrifuged for 1 minute at 1,000 rpm to remove bubbles. Shake the plates for 1 minute on an orbital shaker. Read the plate to detect Luminescent signal with EnSpire Multimode Plate Reader (PerkinElmer). The remaining activity % is used to evaluate Erastin induced ferroptosis in HT-1080 cells and expressed as the following formula: % Remaining Activity=100×[(Sample−Backgroundavg)/(Vehicle−Backgroundavg)]
Sample: Readout from the test compound
Vehicle: Readout from the vehicle sample
Background: Readout from the Erastin only treatment
Dose response curve is graphed by using the non-linear regression analysis (formula equation 201) in XLFit (Excel add-in software) for the average % remaining activity from triplicates, and the EC50 values is then calculated. In this anti-ferroptosis assay, ferrostatin-1, and XJB-5-131 are included as reference. The acceptance criteria were set based on historical result, mean±2.58*SD in logarithmic scale, meanwhile Z′>0.5.

3T3-L1 cells = experiment: Apoptosis assay (Caspase-Glo 3/7, Actinomycin D induced); assay type: cell-based; conditions: 100 nM Actinomycin D, read-out: EC50, inhibition for apoptosis in 3T3-L1 cell induced by Actinomycin D
Protocol: Cell Lines and Media. 3T3-L1 cells were obtained from American Type Culture Collection. Cells were grown in DMEM completed media, 10% FBS, and penicillin-streptomycin mix (Invitrogen). Cells were maintained at 37° C. and 5% CO2 in a tissue culture incubator.
Apoptosis Assay. […] We used this assay to screen our compounds for apoptosis inhibition. Briefly, 40 μL of 3000 3T3-L1 cells were seeded per well in 384 well plates, Cells were allowed to adhere overnight. In the next day, prepare the Actinomycin D as the apoptosis inducing agent into 100 μM DMSO stock. Prepare the test compounds into 10 mM DMSO stock. Serial dilute the compound into 10 points by 3-fold dilution with DMSO. Pre-treat the 3T3-L1 cells with test compound by transfer 40 nL of stock of serial concentration in triplicate wells using acoustic fluid transfer, incubate for 2 hours. Then transfer 40 nL of 100 μM of Actinomycin D (final concentration is 100 nM) into designated wells using acoustic fluid transfer. Incubate the assay plates at 37° C., 5% CO2, 95% humidity incubator for 48 hours. For caspase assay, add 20 μL/well of Caspase-Glo® 3/7 reagent (Promega) into test wells. Incubate for 30 minutes at room temperature to stabilize the luminescence signal. Read the plate with EnSpire Multimode Plate Reader (PerkinElmer). Calculate the EC50 value using formula equation 201: y=(A+((B−A)/(1+((x/C)^D)))) from the XLFit (Excel add-in software), where • A: Average mean of vehicle samples • B: Average mean of cells treated with 100 nM AcD • C: EC50 • D: HillSlope Z′ factor was used to describe the screening assay performance. The Z′ factor value was >0.5 in all the test plates which indicated the assay was qualified and the IC50 value was reliable for all tested compounds.

| Compound | pEC50 (HT-1080 cells; 30 hours) | pEC50 (HT-1080 cells; Homo sapiens, HT-1080, 30 h) | further results |
| --- | --- | --- | --- |
| CC1=C(C)C(=O)C(CCC(=O)NCCCC[C@H](NC(=O)[C@@H]2CCCN2C(=O)[C@H](/C=C/[C@H](CC(C)C)NC(=O)OC(C)(C)C)Cc2ccccc2)C(=O)NC(C)C)=CC1=O [I, tert-Butyl ((4S,7S,E)-7-benzyl-8-((S)-2-(((S)-6-(3-(4,5-dimethyl-3,6-dioxocyclohexa-1,4-dien-1-yl)propanamido)-1-(isopropylamino)-1-oxohexan-2-yl)carbamoyl)pyrrolidin-1-yl)-2-methyl-8-oxooct-5-en-4-yl)carbamate] | 6.92 | – | pEC50 (3T3-L1 cells; Mus musculus, 3T3-L1, 48 h): 5.94 |
| COC1=C(OC)C(=O)C(CCCCCCCCCCOC(=O)NCCCC[C@H](NC(=O)[C@@H]2CCCN2C(=O)[C@H](/C=C/[C@H](CC(C)C)NC(=O)OC(C)(C)C)Cc2ccccc2)C(=O)NC(C)C)=C(C)C1=O [III, tert-butyl N-[(4S,5E,7S)-7-benzyl-8-[(2S)-2-{[(1S)-5-[({[10-(4,5-dimethoxy-2-methyl-3,6-dioxocyclohexa-1,4-dien-1-yl)decyl]oxy}carbonyl)amino]-1-[(propan-2-yl)carbamoyl]pentyl]carbamoyl}pyrrolidin-1-yl]-2-methyl-8-oxooct-5-en-4-yl]carbamate] | – | 7.46 | – |
| CC1=C(C)C(=O)C(CCCOC(=O)NCCCC[C@H](NC(=O)[C@@H]2CCCN2C(=O)[C@H](/C=C/[C@H](CC(C)C)NC(=O)OC(C)(C)C)Cc2ccccc2)C(=O)NC(C)C)=CC1=O [II] | 7.48 | – | – |
| CC1=C(C)C(=O)C(CCC(=O)NCCCC[C@H](NC(=O)[C@@H]2CCCN2C(=O)[C@H](/C=C/[C@H](CC(C)C)NC(=O)OC(C)(C)C)Cc2ccccc2)C(=O)NC(C)C)=CC1=O [IV, tert-Butyl ((4S,7S,E)-7-benzyl-8-((S)-2-(((S)-6-(3-(4,5-dimethyl-3,6-dioxocyclohexa-1,4-dien-1-yl)propanamido)-1-(isopropylamino)-1-oxohexan-2-yl)carbamoyl)pyrrolidin-1-yl)-2-methyl-8-oxooct-5-en-4-yl) carbamate] | 7.61 | – | pEC50 (3T3-L1 cells; 48 hours): 6.15 |
| CC1=C(C)C(=O)C(CCCOC(=O)NCCCC[C@H](NC(=O)[C@@H]2CCCN2C(=O)[C@H](/C=C/[C@H](CC(C)C)NC(=O)OCC2CC2)Cc2ccccc2)C(=O)NC(C)C)=C(C)C1=O [IX, Cyclopropylmethyl N-[(4S,5E,7S)-7-benzyl-2-methyl-8-oxo-8-[(2S)-2-{[(1S)-1-[(propan-2-yl)carbamoyl]-5-({[3-(2,4,5-trimethyl-3,6-dioxocyclohexa-1,4-dien-1-yl)propoxy]carbonyl}amino)pentyl]carbamoyl}pyrrolidin-1-yl]oct-5-en-4-yl]carbamate] | – | 7.31 | – |
| CC1=C(C)C(=O)C(CCCOC(=O)NCCCC[C@H](NC(=O)[C@@H]2CCCN2C(=O)[C@H](/C=C/[C@H](CC(C)C)NC(=O)OC(C)(C)C)Cc2ccccc2)C(=O)NC(C)C)=CC1=O [V, tert-butyl N-[(4S,5E,7S)-7-benzyl-8-[(2S)-2-{[(1S)-5-({[3-(4,5-dimethyl-3,6-dioxocyclohexa-1,4-dien-1-yl)propoxy]carbonyl}amino)-1-[(propan-2-yl)carbamoyl]pentyl]carbamoyl}pyrrolidin-1-yl]-2-methyl-8-oxooct-5-en-4-yl]carbamate] | – | 6.71 | pEC50 (3T3-L1 cells; Mus musculus, 3T3-L1, 48 h): 5.56 |
| CCOC(=O)N[C@H](/C=C/[C@H](Cc1ccccc1)C(=O)N1CCC[C@H]1C(=O)N[C@@H](CCCCC1=C(C)C(=O)C(C)=C(C)C1=O)C(=O)NC(C)C)CC(C)C [VII, ethyl ((4S,7S,E)-7-benzyl-8-((S)-2-(((S)-1-(isopropylamino)-1-oxo-6-(2,4,5-trimethyl-3,6-dioxocyclohexa-1,4-dien-1-yl)hexan-2-yl)carbamoyl)pyrrolidin1-yl)-2-methyl-8-oxooct-5-en-4-yl)carbamate] | – | 7.09 | – |
| COc1c(C)c(C)c(OC)c(CCCOC(=O)NCCC[C@H](NC(=O)[C@@H](NC(=O)[C@@H]2CCCN2C(=O)[C@H](/C=C/[C@H](CC(C)C)NC(=O)OC(C)(C)C)Cc2ccccc2)C(C)C)C(=O)NC(C)C)c1C [VIII, tert-butyl N-[(4S,5E,7S)-7-benzyl-8-[(2S)-2-{[(1S)-1-{[(1S)-4-({[3-(2,5-dimethoxy-3,4,6-trimethylphenyl)propoxy]carbonyl}amino)-1-[(propan-2-yl)carbamoyl]butyl]carbamoyl}-2-methylpropyl]carbamoyl}pyrrolidin-1-yl]-2-methyl-8-oxooct-5-en-4-yl]carbamate] | – | < 5.22 | – |
| CC1=C(C)C(=O)C(CCCC[C@H](NC(=O)[C@@H]2CCCN2C(=O)[C@H](/C=C/[C@H](CC(C)C)NC(=O)OC(C)(C)C)Cc2ccccc2)C(=O)NC(C)C)=C(C)C1=O [VI] | 7.41 | – | pEC50 (3T3-L1 cells; 48 hours): 5.14 |
| CC1=C(C)C(=O)C(CCCOc2ccc(C[C@H](NC(=O)[C@@H]3CCCN3C(=O)[C@H](/C=C/[C@H](CC(C)C)NC(=O)OC(C)(C)C)Cc3ccccc3)C(=O)NC(C)C)cc2)=C(C)C1=O [X, tert-Butyl ((4S,7S,E)-7-benzyl-8-((S)-2-(((S)-1-(isopropylamino)-1-oxo-3-(4-(3-(2,4,5-trimethyl-3,6-dioxocyclohexa-1,4-dien-1-yl)propoxy)phenyl)propan-2-yl)carbamoyl)pyrrolidin-1-yl)-2-methyl-8-oxooct-5-en-4-yl)carbamate] | – | 7.25 | – |
| CC1=C(C)C(=O)C(CCCOC(=O)NCCC[C@H](NC(=O)[C@@H](NC(=O)[C@@H]2CCCN2C(=O)[C@H](/C=C/[C@H](CC(C)C)NC(=O)OC(C)(C)C)Cc2ccccc2)C(C)C)C(=O)NC(C)C)=C(C)C1=O [XI, tert-butyl N-[(4S,5E,7S)-7-benzyl-2-methyl-8-[(2S)-2-{[(1S)-2-methyl-1-{[[(1S)-1-[(propan-2-yl)carbamoyl]-4-({3-(2,4,5-trimethyl-3,6-dioxocyclohexa-1,4-dien-1-yl)propoxy]carbonyl}amino)butyl]carbamoyl}propyl]carbamoyl}pyrrolidin-1-yl]-8-oxooct-5-en-4-yl]carbamate] | – | 7.33 | – |
| CC1=C(C)C(=O)C(CCCOC(=O)NCCC[C@H](NC(=O)[C@@H]2CCCN2C(=O)[C@H](/C=C/[C@H](CC(C)C)NC(=O)OC(C)(C)C)Cc2ccccc2)C(=O)NC2CC2)=C(C)C1=O [XII, 3-(2,4,5-trimethyl-3,6-dioxocyclohexa-1,4-dien-1-yl)propyl N-[(4S)-4-{[(2S)-1-[(2S,3E,5S)-2-benzyl-5-{[(tert-butoxy)carbonyl]amino}-7-methyloct-3-enoyl]pyrrolidin-2-yl]formamido}-4-(cyclopropylcarbamoyl)butyl] carbamate] | – | 6.83 | – |
